Laboratory results from the supplement of paper PMC5908809.

Columns and labels:
[1] = tested on: normal NK cells expanded with K562-aAPC; test: percent inhibition of viability; higher = more inhibition; settings: 72 h, IL-2 2.5 ng/mL
Description: (§1)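 Drug sensitivity and resistance testing on K562-aAPC-expanded normal NK cells: 5 concentrations (10-fold steps over a 10,000-fold range), 72 h at 37 °C, viability by CellTiter-Glo normalised to DMSO and benzethonium chloride controls; DSS from the fitted curve.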

[2] = tested on: DERL-7 (IL-2 2.5 ng/mL); test: as above; settings: 72 h
[3] = tested on: IMC-1 (IL-2 20 ng/mL); test: as above; settings: 72 h
[4] = tested on: KAI3 (IL-2 2.5 ng/mL); test: as above; settings: 72 h
[5] = tested on: KHYG-1 (IL-2 2.5 ng/mL); test: as above; settings: 72 h
[6] = tested on: NK-92 (IL-2 2.5 ng/mL); test: as above; settings: 72 h
[7] = tested on: NK-YS (IL-2 2.5 ng/mL); test: as above; settings: 72 h
[8] = tested on: NKL (IL-2 2.5 ng/mL); test: as above; settings: 72 h
[9] = tested on: SNK-6 (IL-2 2.5 ng/mL); test: as above; settings: 72 h
[10] = tested on: YT (IL-2 2.5 ng/mL); test: as above; settings: 72 h
[11] = tested on: normal primary NK cells, pool 1 (3 donors) (IL-2 2.5 ng/mL); test: as above; settings: 72 h
[12] = tested on: normal primary NK cells, pool 1 (3 donors), resting (IL-2 0 ng/mL); test: as above; settings: 72 h
[13] = tested on: normal primary NK cells, pool 2 (3 donors) (IL-2 2.5 ng/mL); test: as above; settings: 72 h
[14] = tested on: normal primary NK cells, pool 3 (3 donors) (IL-2 2.5 ng/mL); test: as above; settings: 72 h
[15] = tested on: normal NK cells expanded with K562-aAPC; test: drug sensitivity score (DSS) (DSS units); higher = more sensitive; extreme values may be limits of the assay; settings: 72 h; IL-2 2.5 ng/mL
Description: as §1

[16] = tested on: DERL-7 (IL-2 2.5 ng/mL); test: as above; settings: 72 h
[17] = tested on: IMC-1 (IL-2 20 ng/mL); test: as above; settings: 72 h
[18] = tested on: KAI3 (IL-2 2.5 ng/mL); test: as above; settings: 72 h
[19] = tested on: KHYG-1 (IL-2 2.5 ng/mL); test: as above; settings: 72 h
[20] = tested on: NK-92 (IL-2 2.5 ng/mL); test: as above; settings: 72 h
[21] = tested on: NK-YS (IL-2 2.5 ng/mL); test: as above; settings: 72 h
[22] = tested on: NKL (IL-2 2.5 ng/mL); test: as above; settings: 72 h
[23] = tested on: SNK-6 (IL-2 2.5 ng/mL); test: as above; settings: 72 h
[24] = tested on: YT (IL-2 2.5 ng/mL); test: as above; settings: 72 h
[25] = tested on: normal primary NK cells, pool 1 (3 donors) (IL-2 2.5 ng/mL); test: as above; settings: 72 h
[26] = tested on: normal primary NK cells, pool 1 (3 donors), resting (IL-2 0 ng/mL); test: as above; settings: 72 h
[27] = tested on: normal primary NK cells, pool 2 (3 donors) (IL-2 2.5 ng/mL); test: as above; settings: 72 h
[28] = tested on: normal primary NK cells, pool 3 (3 donors) (IL-2 2.5 ng/mL); test: as above; settings: 72 h

CC(C)C(=O)Nc1ccc([N+](=O)[O-])c(C(F)(F)F)c1 [Flutamide] (max concentration tested 10000 nM)
percent inhibition of viability [%]
Settings | 1 nM | 10 nM | 100 nM | 1000 nM | 10000 nM
[1] | -8.49 | -7.43 | -8.84 | -8.3 | -13.9
[2] | 0.26 | 11.3 | -2.83 | 6.87 | 2.11
[3] | -0.8 | -1.46 | -1.68 | -2.71 | 12.2
[4] | -0.84 | -1.39 | -3.89 | -2.15 | -17.5
[5] | -7.32 | -1.75 | -9.49 | -4.37 | -1.22
[6] | -9.52 | -2.4 | -7.94 | 12.1 | 22.5
[7] | -0.08 | -3.58 | -2.41 | -5.97 | 2.23
[8] | -6.29 | 8.8 | -0.67 | 5.38 | -13.1
[9] | 21.7 | 46.8 | -5.11 | 31.3 | 24.2
[10] | -7.4 | 6 | -4.1 | 6.56 | 19.1
[11] | -3.89 | -10.2 | -4.34 | -7.61 | -4.01
[12] | -8.17 | -16.6 | 6.26 | -12.5 | 8.25
[13] | 7.09 | -4.46 | -3.61 | -2.09 | 6.81
[14] | -0.96 | 0.66 | 3.21 | -0.91 | 1.69

Settings | drug sensitivity score
[15] | 0
[16] | 0
[17] | 0.02
[18] | 0
[19] | 0
[20] | 2.07
[21] | 0
[22] | 0
[23] | 0
[24] | 1.25
[25] | 0
[26] | 0
[27] | 0
[28] | 0

COc1cc2c(Oc3ccc(NC(=O)C4(C(=O)Nc5ccc(F)cc5)CC4)cc3F)ccnc2cc1OCCCN1CCOCC1 [Foretinib] (max concentration tested 1000 nM)
percent inhibition of viability [%]
Settings | 0.1 nM | 1 nM | 10 nM | 100 nM | 1000 nM
[1] | -5.4 | -5.19 | -3.74 | 12.6 | 61
[2] | 3.24 | -0.68 | 2.22 | -8.07 | 70.8
[3] | -6.29 | -10.2 | -1.31 | 3.45 | 27.1
[4] | 3.99 | -0.1 | 0.67 | 11.6 | 31.7
[5] | 1.36 | -8.14 | -3.69 | 18.4 | 49.9
[6] | -17.3 | -12.3 | -5.79 | 19.9 | 34.9
[7] | -1.72 | -7.82 | -1.95 | 11.5 | 70.2
[8] | -12.1 | -16.5 | -5.45 | 16.3 | 49.9
[9] | -1.08 | -15.3 | -7.01 | -4.86 | 49.9
[10] | -1.93 | -8.62 | -2.43 | 13.9 | 37.3
[11] | 3.18 | -0.67 | 9.57 | 11.1 | 15.9
[12] | -4.45 | 1.67 | 17.2 | 10.1 | 18.4
[13] | -11.2 | -4.47 | 3.97 | -2.36 | -2.41
[14] | -8.78 | -7.33 | 8.91 | 6.17 | 10.7

Settings | drug sensitivity score
[15] | 5.37
[16] | 3.35
[17] | 1.64
[18] | 2.98
[19] | 5.21
[20] | 4.04
[21] | 5.79
[22] | 5
[23] | 2.27
[24] | 3.73
[25] | 1.19
[26] | 4.1
[27] | 0
[28] | 0.32
